Patent publication US9434727B2, “Substituted 4-phenylpiperidines, their preparation and use” (THE TRUSTEES OF COLUMBIA UNIVERSITY IN THE CITY OF NEW YORK, priority 2014, dated 2016)
Where a name gives a salt, the structure may show the parent alone.

Experiments:
serum RBP4 = serum RBP4 (Mus musculus (Mouse), UniProt Q00724); test: Serum RBP4 levels in Abca4−/− mice; type: in vivo; conditions: 25 mg/kg for 12 weeks, mice starting at 17 weeks old
Experimental: (§1) The effectiveness of the compounds listed in Table 1 are tested in wild-type and Abca4−/− mice. The Abca4−/− mouse model manifests accelerated accumulation of lipofuscin in the RPE and is considered a pre-clinical efficacy model for a drug reducing lipofuscin accumulation. Compounds are orally dosed for 3 weeks at 30 mg/kg. There is a reduction in the serum RBP4 level in treated animals. The levels of A2E/isoA2E and other bisretinoids are reduced in treated mice.
(§2) Abca4−/− mice have A2E levels in the ˜15-19 pmoles/eye range at 17 weeks old. Mice, starting at 17 weeks old, were treated with 25 mg/kg of Compound 81 for 12 weeks.

RBP4-TTR interaction [1] = biological target: T1, RBP4-TTR interaction (Homo sapiens (Human), UniProt P02753); test: TR-FRET (HTRF) assay for retinol-induced RBP4-TTR interaction; type: biochemical; conditions: in the presence of 1 μM retinol; read-out: HTRF assay for antagonists of RBP4-TTR interaction: IC50
Outline: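 Bacterial MBP-RBP4 and Eu³⁺-cryptate-labeled untagged human TTR were incubated with titrated compound in the presence of 1 μM retinol, overnight at +4° C in the dark. Buffer: 10 mM Tris-HCl pH 7.5, 1 mM DTT, 0.05% NP-40, 0.05% Prionex, 6% glycerol, 400 mM KF. Signal is reported as Flu665/Flu620×10,000.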

RBP4 [2] = biological target: T2, RBP4 (Homo sapiens (Human), UniProt P02753); test: Scintillation proximity (SPA) RBP4 binding assay; conditions: 10 nM 3H-Retinol, 50 nM biotinylated RBP4
Outline: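 Biotinylated urinary human RBP4 (50 nM) on streptavidin-PVT SPA beads with 10 nM ³H-retinol and test compound, in PBS pH 7.4, 1 mM EDTA, 0.1% BSA, 0.5% CHAPS. Nonspecific binding with 20 μM unlabeled retinol. Equilibrated 6 h at room temperature then overnight at 4° C under dim light.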

Abca4−/− mice [3] = test: Bisretinoid accumulation in eyes of Abca4−/− mice; type: in vivo, mouse; conditions: 25 mg/kg for 12 weeks, mice starting at 17 weeks old, versus vehicle-treated controls
Experimental: as §1, §2

serum RBP4 and retinol = serum RBP4 and retinol (Rattus norvegicus (Rat), UniProt P04916); conditions: in vivo; cited from earlier work
RBP4-TTR interaction [4] = biological target: T1, RBP4-TTR interaction; conditions: cited from earlier work
[5] = test system: retinal pigment epithelium cells; conditions: many cell types, including the retinal pigment epithelium cells; cited from earlier work
mice = conditions: cited from earlier work
Abca4−/− mice [6] = conditions: cited from earlier work
RBP4 [7] = biological target: T2, RBP4; conditions: cited from earlier work

| SMILES | serum RBP4 level (serum RBP4; present-tense paper example) | IC50 (RBP4-TTR interaction [1]) [nM] | IC50 (RBP4 [2]) [nM] | other results |
| --- | --- | --- | --- | --- |
| O=C(c1n[nH]c2c1CNC2)N1CCC(c2ccc(F)c(F)c2C(F)(F)F)CC1 [Compound 38, (4-(3,4-Difluoro-2-(trifluoromethyl)phenyl)piperidin-1-yl)(1,4,5,6-tetrahydropyrrolo[3,4-c]pyrazol-3-yl)methanone Hydrochloride] | significant serum RBP4 reduction | 200 | 26.9 |  |
| CC(=O)N1CCc2c(C(=O)N3CCC(c4ccc(F)c(F)c4C(F)(F)F)CC3)n[nH]c2C1 [Compound 81, 1-(3-(4-(3,4-Difluoro-2-(trifluoromethyl)phenyl)piperidine-1-carbonyl)-4,5-dihydro-1H-pyrazolo[3,4-c]pyridin-6(7H)-yl)ethanone] |  |  |  | reduction in bisretinoid content (Abca4−/− mice [3]): 53%; serum RBP4 level (serum RBP4): significant serum RBP4 reduction |
| O=C(c1n[nH]c2c1CCNC2)N1CCC(c2cccc(F)c2C(F)(F)F)CC1 [Compound 30, (4-(3-Fluoro-2-(trifluoromethyl)phenyl)piperidin-1-yl)(4,5,6,7-tetrahydro-1H-pyrazolo[3,4-c]pyridin-3-yl)methanone Hydrochloride] | significant serum RBP4 reduction | 44.1 | 13.3 |  |
| O=C(c1n[nH]c2c1CNCC2)N1CCC(c2cccc(F)c2Cl)CC1 [Compound 42, (4-(2-Chloro-3-fluorophenyl)piperidin-1-yl)(4,5,6,7-tetrahydro-1Hpyrazolo[4,3-c]pyridin-3-yl) methanone Hydrochloride] | significant serum RBP4 reduction | 791 | 424 |  |
| O=C(c1n[nH]c2c1CCNC2)N1CCC(c2cccc(F)c2Cl)CC1 [Compound 40, (4-(2-Chloro-3-fluorophenyl)piperidin-1-yl)(4,5,6,7-tetrahydro-1Hpyrazolo[3,4-c]pyridin-3-yl)methanone Hydrochloride] | significant serum RBP4 reduction | 84.9 | 14 |  |
| O=C(c1n[nH]c2c1CCNC2)N1CCC(c2ccc(F)c(F)c2C(F)(F)F)CC1 [Compound 34] | significant serum RBP4 reduction | 53.1 | 20.7 |  |
| CC1=C(/C=C/C(C)=C/C=C/C(C)=C/C(=O)Nc2ccc(O)cc2)C(C)(C)CCC1 [fenretinide, N-(4-hydroxy-phenyl)retinamide] |  |  |  | serum RBP4 and retinol (serum RBP4 and retinol): reduce serum RBP4 and retinol; RBP4-TTR interaction (RBP4-TTR interaction [4]): disrupt the RBP4-TTR interaction; induction of apoptosis [5]: extremely active inducer of apoptosis; formation of hemangiosarcomas (mice): stimulate formation of hemangiosarcomas; A2E production (Abca4−/− mice [6]; Abca4−/− mice): reduced A2E production; ocular all-trans retinol uptake and visual cycle (Abca4−/− mice [6]; mouse, in vivo): inhibit ocular all-trans retinol uptake and slow down the visual cycle; binding to RBP4 and displacement of all-trans retinol (RBP4 [7]): bind to RBP4, displace all-trans retinol from RBP4 |
| O=C(c1n[nH]c2c1CN(CCC(F)(F)F)CC2)N1CCC(c2cccc(F)c2Cl)CC1 [Compound 167, (4-(2-Chloro-3-fluorophenyl)piperidin-1-yl)(5-(3,3,3-trifluoropropyl)-4,5,6,7-tetrahydro-1H-pyrazolo[4,3-c]pyridin-3-yl)methanone] |  | 48.8 | 11.7 |  |
| O=C(c1n[nH]c2c1CN(CC(F)(F)F)C2)N1CCC(c2ccc(F)c(F)c2C(F)(F)F)CC1 [Compound 107] |  | 77 | 23.4 |  |
| CC(=O)N1CCc2c(C(=O)N3CCC(c4cccc(F)c4Cl)CC3)n[nH]c2C1 [Compound 150, 1-(3-(4-(2-chloro-3-fluorophenyl)piperidine-1-carbonyl)-4,5-dihydro-1H-pyrazolo[3,4-c]pyridin-6(7H)-yl)ethanone] |  | 23.7 | 4.84 |  |
| CC(=O)N1CCc2c(C(=O)N3CCC(c4ccc(F)cc4C(F)(F)F)CC3)n[nH]c2C1 [Compound 158, 1-(3-(4-(4-fluoro-2-(trifluoromethyl)phenyl)piperidine-1-carbonyl)-4,5-dihydro-1H-pyrazolo[3,4-c]pyridin-6(7H)-yl)ethanone] |  | 36.8 | 8.63 |  |
| O=C(c1n[nH]c2c1CCN(CCC(F)(F)F)C2)N1CCC(c2cccc(F)c2C(F)(F)F)CC1 [Compound 76, (4-(3-Fluoro-2-(trifluoromethyl)phenyl)piperidin-1-yl)(6-(3,3,3-trifluoropropyl)-4,5,6,7-tetrahydro-1H-pyrazolo[3,4-c]pyridin-3-yl)methanone] |  | 19.7 | 7.4 |  |
| O=C(c1n[nH]c2c1CNCC2)N1CCC(c2ccc(F)c(F)c2C(F)(F)F)CC1 [Compound 36, (4-(3,4-Difluoro-2-(trifluoromethyl)phenyl)piperidin-1-yl)(4,5,6,7-tetrahydro-1H-pyrazolo[4,3-c]pyridin-3-yl)methanone Trifluoroacetic Acid Salt] | significant serum RBP4 reduction | 291 | 10.9 |  |
| O=C(c1n[nH]c2c1CN(C1COC1)C2)N1CCC(c2ccc(F)c(F)c2C(F)(F)F)CC1 [Compound 98, (4-(3,4-difluoro-2-(trifluoromethyl)phenyl)piperidin-1-yl)(5-(oxetan-3-yl)-1,4,5,6-tetrahydropyrrolo[3,4-c]pyrazol-3-yl) methanone] |  | 74.1 | 11.8 |  |
| COC(=O)N1CCc2c(C(=O)N3CCC(c4cc(F)cc(F)c4C(F)(F)F)CC3)n[nH]c2C1 [Compound 130, Methyl 3-(4-(3,5-difluoro-2-(trifluoromethyl)phenyl)piperidine-1-carbonyl)-1,4,5,7-tetrahydro-6H-pyrazolo[3,4-c]pyridine-6-carboxylate] |  | 14.9 | 12.8 |  |
| CS(=O)(=O)N1CCc2[nH]nc(C(=O)N3CCC(c4cc(C(F)(F)F)cc(C(F)(F)F)c4)CC3)c2C1 [Compound 154, (4-(3,5-bis(trifluoromethyl)phenyl)piperidin-1-yl)(5-(methylsulfonyl)-4,5,6,7-tetrahydro-1H-pyrazolo[4,3-c]pyridin-3-yl)methanone] |  | 385 | 150 |  |
| CC(C)(C)CN1CCc2c(C(=O)N3CCC(c4ccc(F)c(F)c4C(F)(F)F)CC3)n[nH]c2C1 [Compound 126, (4-(3,4-Difluoro-2(trifluoromethyl)phenyl)piperidin-1-yl)(6-neopentyl-4,5,6,7-tetrahydro-1H-pyrazolo[3,4-c]pyridin-3-yl)methanone] |  | 170 | 17 |  |
| CS(=O)(=O)N1CCc2[nH]nc(C(=O)N3CCC(c4cccc(F)c4C(F)(F)F)CC3)c2C1 [Compound 64, (4-(3-Fluoro-2-(trifluoromethyl)phenyl)piperidin-1-yl)(5-(methylsulfonyl)-4,5,6,7-tetrahydro-1H-pyrazolo[4,3-c]pyridin-3-yl)methanone] |  | 20.6 | 5.36 |  |
